Data: patent US20130131161A1, “METHODS AND COMPOSITIONS FOR CARDIOVASCULAR DISEASES AND CONDITIONS” (priority 2009, published 2013)

Test system: Human umbilical vein endothelial cells (HUVECs)
Experiment: eNOS activity analysis: NO, ONOO− and NO/ONOO− release from HUVECs of 50 genotyped donors in response to LA-419 (Example 2)
Type: cell-based
Details: for Fold difference NO (mean ± sd) / Fold difference NO/ONOO− (mean ± sd) / Fold difference ONOO− (mean ± sd): (LA-419 1 μM)/(control)
Method: Concurrent measurements of NO and ONOO^− were carried out with tandem electrochemical nanosensors combined into one working unit with a total diameter of 200-500 nm (FIG. 1). Their design was based on previously developed and well-characterized chemically modified carbon-fiber technology (Malinski and Taha, 1992; Lvovich and Scheeline, 1997). Each of the nanosensors was made by depositing a sensing material on the tip of a carbon fiber (length 4-5 μm, diameter 0.2-0.5 μm). The fibers were sealed with nonconductive epoxy and electrically connected to copper wires with conductive silver epoxy. A conductive film of polymeric nickel (II) tetrakis(3-methoxy-4-hydroxyphenyl)porphyrin for the NO-sensor and polymeric film of Mn (III) [2.2]paracyclophanylporphyrin was used for the ONOO^−-sensor.
A module of NO/ONOO^− nanosensors (diameter 1-2 μm) with a platinum wire (0.1 mm) counter electrode and saturated calomel reference electrode (SCE) were applied. Differential pulse voltammetry (DPV) and amperometry were performed with a computer-based Gamry VFP600 multichannel potentiostat. DPV was used to measure the basal NO and ONOO^− concentrations, and amperometry was used to measure changes in NO and ONOO^− concentrations from its basal level with time. The DPV current at the peak potential characteristic for NO oxidation (0.65 V) and ONOO^− reduction (−0.45 V) was directly proportional to the local concentrations of these compounds in the immediate vicinity of the sensor. Linear calibration curves (current vs. concentration) were constructed for each sensor from 10 nM to 3 μM before and after measurements with aliquots of NO and ONOO^− standard solutions, respectively. The detection limit of the sensors was 1.0 nM.
The quantification of each analyte (concentration in nM) was performed using a maximum current from amperograms and standard calibration curves. A reproducibility of measurements with nanosensors is relatively high (between 5-12%). […] The sensors were slowly raised 5±2 μm from the surface of a single endothelial cell. The eNOS agonist, calcium ionophore A23187 (CaI) as well as the different drugs were then added to the surrounding media at the cell surface with a nanoinjector that was also positioned by a computer controlled-micromanipulator.
This example describes the genotype-specific response of the three major eNOS variants to 1 μM and 5 μM concentrations of LA-419. The three major genetic polymorphisms studied were the Glu298Asp variant (E298D or 894G→T) in exon 7 of […], the −786T→C variant in the promoter region, and the intron 4 polymorphism (VNTR). All of these variants have possible effects on the cardiovascular system and endothelial dysfunction. For this study, human umbilical vein endothelial cells (HUVECs) from 50 donors between 18 and 32 years of age were used.
For the analysis several analysis techniques were employed. First, the effect of genotype on NO and ONOO^− release was explored within the different concentrations of LA-419 (control, 1 μM, 5 μM), calculated as the average peak release (nmols/L) of NO, ONOO^−, and NO/ONOO^−. The effect of genotype on the net increase in NO, ONOO^−, and NO/ONOO^− for LA-419 (1 μM and 5 μM) as compared to control was also measured. In addition, an analysis was done on the effect of genotype on the % change in NO, ONOO^−, and NO/ONOO^− production for LA-419 (1 μM and 5 μM), calculated as:
% Change=[(avg. LA-419−avg. control)/(avg. control)]*100
Finally, an evaluation was undertaken concerning the effect of genotype on the production of NO, ONOO^−, and NO/ONOO^− as the fold difference of control for LA-419 (1 μM and 5 μM), calculated as:
Fold Difference=(avg. LA-419)/(avg. control)
Within each calculation technique the results were compared for statistical significance using a non-parametric ANOVA Kruskal-Wallace test or a non-parametric Mann-Whitney U test. Statistical significance was set at a p-value <0.05 in a two-tailed distribution. […]

[1] = 1 μM LA-419, Intron 4 variant b/a, a/a, c/c (n=14)
[2] = 1 μM LA-419, Intron 4 variant b/b (n=31)
[3] = 5 μM LA-419, Intron 4 variant b/a, a/a, c/c (n=14)
[4] = 5 μM LA-419, Intron 4 variant b/b (n=31)
[5] = Combination of all G894T + T-786C genotypes but G/G + T/T, n=31
[6] = Combination of all G894T + T-786C genotypes but T/T + C/C, n=46

## CC(=O)SC1COC2C(O[N+](=O)[O-])COC12 (stereo not drawn) [LA-419, S-(6-Nitro-oxi-hexahydro-furo[3,2-b]furan-3-1-il)thioacetate]
[1]
  NO % Change (mean ± sd): 11.76 (29.57) %
  NO/ONOO− % Change (mean ± sd): 28.01 (62.22) %
  ONOO− % Change (mean ± sd): −2.68 (29.78) %
[2]
  NO % Change (mean ± sd): 13.46 (23.13) %
  NO/ONOO− % Change (mean ± sd): 43.27 (71.09) %
  ONOO− % Change (mean ± sd): −10.24 (27.17) %
[3]
  NO % Change (mean ± sd): 16.16 (6.09) %
  NO/ONOO− % Change (mean ± sd): 44.37 (12.85) %
  ONOO− % Change (mean ± sd): −19.27 (5.27) %
[4]
  NO % Change (mean ± sd): 13.52 (6.80) %
  NO/ONOO− % Change (mean ± sd): 42.24 (17.73) %
  ONOO− % Change (mean ± sd): −19.19 (7.76) %
[5]
  Fold difference NO (mean ± sd): 1.14 (0.26)
  Fold difference NO/ONOO− (mean ± sd): 1.41 (0.71)
  Fold difference ONOO− (mean ± sd): 0.92 (0.30)
[6]
  Fold difference NO (mean ± sd): 1.13 (0.25)
  Fold difference NO/ONOO− (mean ± sd): 1.37 (0.68)
  Fold difference ONOO− (mean ± sd): 0.93 (0.28)
G894T + T-786C G/G + T/C, n=8
  Fold difference NO (mean ± sd): 1.03 (0.17)
  Fold difference NO/ONOO− (mean ± sd): 1.07 (0.37)
  Fold difference ONOO− (mean ± sd): 1.07 (0.36)
G894T + T-786C G/G + T/T, n=18
  Fold difference NO (mean ± sd): 1.10 (0.20)
  Fold difference NO/ONOO− (mean ± sd): 1.28 (0.57)
  Fold difference ONOO− (mean ± sd): 0.94 (0.23)
G894T + T-786C G/T + C/C, n=1
  Fold difference NO (mean ± sd): 0.86 (0)
  Fold difference NO/ONOO− (mean ± sd): 0.49 (0)
  Fold difference ONOO− (mean ± sd): 1.77 (0)
G894T + T-786C G/T + T/C, n=13
  Fold difference NO (mean ± sd): 1.28 (0.33)
  Fold difference NO/ONOO− (mean ± sd): 1.70 (0.81)
  Fold difference ONOO− (mean ± sd): 0.81 (0.15)
G894T + T-786C G/T + T/T, n=4
  Fold difference NO (mean ± sd): 1.08 (0.03)
  Fold difference NO/ONOO− (mean ± sd): 1.12 (0.18)
  Fold difference ONOO− (mean ± sd): 0.98 (0.18)
G894T + T-786C T/T + C/C, n=1
  Fold difference NO (mean ± sd): 1.02 (0)
  Fold difference NO/ONOO− (mean ± sd): 1.23 (0)
  Fold difference ONOO− (mean ± sd): 0.83 (0)
G894T + T-786C T/T + C/C, n=3
  Fold difference NO (mean ± sd): 1.07 (0.06)
  Fold difference NO/ONOO− (mean ± sd): 1.20 (0.04)
  Fold difference ONOO− (mean ± sd): 0.89 (0.06)
G894T + T-786C T/T + T/C, n=2
  Fold difference NO (mean ± sd): 1.11 (0.36)
  Fold difference NO/ONOO− (mean ± sd): 2.25 (1.17)
  Fold difference ONOO− (mean ± sd): 0.52 (0.11)
G894T G/G & G/T, n=44
  Fold difference NO (mean ± sd): 1.13 (0.25)
  Fold difference NO/ONOO− (mean ± sd): 1.34 (0.64)
  Fold difference ONOO− (mean ± sd): 0.95 (0.27)
G894T G/G, n=26
  Fold difference NO (mean ± sd): 1.08 (0.19)
  Fold difference NO/ONOO− (mean ± sd): 1.22 (0.52)
  Fold difference ONOO− (mean ± sd): 0.98 (0.27)
G894T G/T & T/T, n=23
  Fold difference NO (mean ± sd): 1.18 (0.28)
  Fold difference NO/ONOO− (mean ± sd): 1.53 (0.77)
  Fold difference ONOO− (mean ± sd): 0.87 (0.26)
G894T G/T, n=18
  Fold difference NO (mean ± sd): 1.21 (0.30)
  Fold difference NO/ONOO− (mean ± sd): 1.50 (0.77)
  Fold difference ONOO− (mean ± sd): 0.90 (0.27)
G894T T/T, n=5
  Fold difference NO/ONOO− (mean ± sd): 1.62 (0.82)
  Fold difference ONOO− (mean ± sd): 0.75 (0.21)
Intron 4 a/a, n=1
  Fold difference NO (mean ± sd): 1.09 (0)
  Fold difference NO/ONOO− (mean ± sd): 1.23 (0)
  Fold difference ONOO− (mean ± sd): 0.89 (0)
Intron 4 a/a, n=3
  Fold difference NO (mean ± sd): 0.95 (0.25)
  Fold difference NO/ONOO− (mean ± sd): 0.96 (0.45)
  Fold difference ONOO− (mean ± sd): 1.10 (0.34)
Intron 4 b/a, a/a, c/c, n=14
  Fold difference NO (mean ± sd): 1.13 (0.23)
  Fold difference NO/ONOO− (mean ± sd): 1.28 (0.62)
  Fold difference ONOO− (mean ± sd): 0.97 (0.30)
Intron 4 b/a, n=10
  Fold difference NO (mean ± sd): 1.21 (0.28)
  Fold difference NO/ONOO− (mean ± sd): 1.43 (0.65)
  Fold difference ONOO− (mean ± sd): 0.93 (0.31)
Intron 4 b/b, b/a, c/c, n=42
  Fold difference NO (mean ± sd): 0.95 (0.25)
  Fold difference NO/ONOO− (mean ± sd): 1.42 (0.69)
  Fold difference ONOO− (mean ± sd): 0.91 (0.27)
Intron 4 b/b, n=31
  Fold difference NO (mean ± sd): 1.13 (0.23)
  Fold difference NO/ONOO− (mean ± sd): 1.43 (0.71)
  Fold difference ONOO− (mean ± sd): 0.90 (0.27)
Intron 4 c/c, n=1
  Fold difference NO (mean ± sd): 0.73 (0)
  Fold difference NO/ONOO− (mean ± sd): 0.74 (0)
  Fold difference ONOO− (mean ± sd): 0.99 (0)
T-786C C/C, n=1
  Fold difference NO (mean ± sd): 1.02 (0)
  Fold difference NO/ONOO− (mean ± sd): 1.23 (0)
  Fold difference ONOO− (mean ± sd): 0.83 (0)
T-786C C/C, n=4
  Fold difference NO (mean ± sd): 1.02 (0.12)
  Fold difference NO/ONOO− (mean ± sd): 1.03 (0.36)
